Assay [1] has as its target T1, human 5-HT2C receptor (Homo sapiens, UniProt P28335).
T1 construct: expressed in transfected cells; host or cells: CHO (Chinese Hamster Ovary) cells; membrane preparation
T1 sequence (P28335 33-458): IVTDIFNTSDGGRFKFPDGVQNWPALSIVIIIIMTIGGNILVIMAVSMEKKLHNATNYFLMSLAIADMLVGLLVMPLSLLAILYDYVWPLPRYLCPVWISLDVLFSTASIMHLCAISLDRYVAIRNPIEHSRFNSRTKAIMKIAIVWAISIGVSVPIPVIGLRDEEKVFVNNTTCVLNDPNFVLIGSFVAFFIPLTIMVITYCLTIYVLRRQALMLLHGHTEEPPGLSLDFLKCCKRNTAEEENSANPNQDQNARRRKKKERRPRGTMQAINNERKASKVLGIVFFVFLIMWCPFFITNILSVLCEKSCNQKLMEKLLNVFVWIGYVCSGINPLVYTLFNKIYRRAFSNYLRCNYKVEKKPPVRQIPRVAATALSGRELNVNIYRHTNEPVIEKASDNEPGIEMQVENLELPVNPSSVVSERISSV
As to the kind of experiment: 5-HT2C receptor-stimulated calcium mobilization (FLIPR) in CHO cells. The format is cell-based. Conditions: for Emax: CHO, read-out: 5-HT2C Function EMax (%); for EC50: calcium mobilization, CHO cells, read-out: 5-HT2C Function EC50.

In assay [2] the target is T1, human 5-HT2C receptor. Briefly: 5-HT2C receptor binding, [125I]DOI displacement, membranes of transfected CHO cells. As to conditions: read-out: 5-HT2C Binding Ki avg.

What is called Emax is the greatest response seen or fitted, relative to the assay's reference. A word on the EC50: it is the concentration needed to bring the measured effect to its halfway point. Usually Ki stands for a dissociation constant, usually derived from enzyme kinetics or from competition with a known ligand. Take `NCC1CN(CC2CC2)c2cccc(-c3ccccc3Cl)c2O1` (racemic) [Example 12, 1-[8-(2-Chlorophenyl)-4-(cyclopropylmethyl)-3,4-dihydro-2H-1,4-benzoxazin-2-yl]methanamine]: on human 5-HT2C receptor [1], the Emax came out at 40% and the concentration for a half-maximal effect (EC50) was 166 nM. At human 5-HT2C receptor [2], the Ki was 22.7 nM.
With `CN1CC(CN)Oc2c(-c3ccccc3F)cccc21` (racemic) [Example 7, 1-[8-(2-Fluorophenyl)-4-methyl-3,4-dihydro-2H-1,4-benzoxazin-2-yl]methanamine], at human 5-HT2C receptor [1], the maximal effect (Emax) amounted to 60% and the EC50 stood at 72 nM. Moreover, on human 5-HT2C receptor [2], the Ki turned out to be 19.5 nM.
For `Cc1ccccc1-c1cccc2c1OC(CN)CN2C` (racemic) [Example 8, 1-[4-Methyl-8-(2-methylphenyl)-3,4-dihydro-2H-1,4-benzoxazin-2-yl]methanamine] the same measures were 70%, 82 nM and 26.8 nM.
In the case of `CN1CC(CN)Oc2c(-c3cc(Cl)ccc3Cl)cccc21` (racemic) [Example 13, 1-[8-(2,5-Dichlorophenyl)-4-methyl-3,4-dihydro-2H-1,4-benzoxazin-2-yl]methanamine], on human 5-HT2C receptor [1], the Emax amounted to 70% and the EC50 came to 131 nM. Further, at human 5-HT2C receptor [2], the Ki amounted to 12.8 nM.
`Cc1cc(Cl)ccc1-c1cccc2c1OC(CN)CN2` (racemic) [Example 20, 1-[8-(4-chloro-2-methylphenyl)-3,4-dihydro-2H-1,4-benzoxazin-2-yl]methanamine]: on human 5-HT2C receptor [1], the Emax is 75% and the EC50 turned out to be 285 nM. For the same compound, the Ki at human 5-HT2C receptor [2] was found to be 19.5 nM.
For `CN1CC(CN)Oc2c(-c3ccccc3Cl)cccc21` (racemic) [Example 11, 1-[8-(2-Chlorophenyl)-4-methyl-3,4-dihydro-2H-1,4-benzoxazin-2-yl]methanamine] the same measures were 70%, 37 nM and 9.2 nM.
The matching figures for `NCC1COc2cc(Cl)cc(-c3ccccc3Cl)c2N1` (racemic) [Example 36, 1-[7-chloro-5-(2-chlorophenyl)-3,4-dihydro-2H-1,4-benzoxazin-3-yl]methanamine]: 53%, 845 nM and 46.8 nM.
Regarding `NC[C@H]1CNc2cccc(-c3ccccc3C(F)(F)F)c2O1` [Example 47, 1-{(2S)-8-[2-(trifluoromethyl)phenyl]-3,4-dihydro-2H-1,4-benzoxazin-2-yl}methanamine], on human 5-HT2C receptor [1], the Emax is 80% and the EC50 was determined as 2.74 nM. The Ki on human 5-HT2C receptor [2] turned out to be 35 nM.
For `NCC1CNc2cccc(-c3ccc(Cl)cc3Cl)c2O1` (racemic) [Example 15, 1-[8-(2,4-Dichlorophenyl)-3,4-dihydro-2H-1,4-benzoxazin-2-yl]methanamine] the same measures were 70%, 8 nM and 15.9 nM.
`COc1ccc(-c2cccc3c2O[C@@H](CN)CN3)c(Cl)c1` [Example 52, 1-[(2S)-8-(2-chloro-4-methoxyphenyl)-3,4-dihydro-2H-1,4-benzoxazin-2-yl]methanamine]: on human 5-HT2C receptor [1], the Emax worked out at 78% and the EC50 was 0.17 nM. For the same compound, the Ki at human 5-HT2C receptor [2] stood at 9.05 nM.
The matching figures for `NCC1COc2cc(F)cc(-c3ccccc3C(F)(F)F)c2N1` (racemic) [Example 55, 1-{7-fluoro-5-[2-(trifluoromethyl)phenyl]-3,4-dihydro-2H-1,4-benzoxazin-3-yl}methanamine]: 54%, 331 nM and 19.3 nM.
For `NCC1CNc2cccc(-c3ccccc3Cl)c2O1` (racemic) [Example 16, 1-[8-(2-Chlorophenyl)-3,4-dihydro-2H-1,4-benzoxazin-2-yl]methanamine] the same measures were 70%, 3 nM and 14 nM.
For `COc1ccc(-c2cccc3c2OC(CN)CN3C)cc1` (racemic) [Example 6, 1-[8-(4-Methoxyphenyl)-4-methyl-3,4-dihydro-2H-1,4-benzoxazin-2-yl]methanamine] the same measures were 80%, 70 nM and 12.1 nM.
`NCC1CNc2cccc(-c3ccc(C(F)(F)F)cc3C(F)(F)F)c2O1` (racemic) [Example 23, 1-{8-[2,4-Bis(trifluoromethyl)phenyl]-3,4-dihydro-2H-1,4-benzoxazin-2-yl}methanamine]: at human 5-HT2C receptor [1], the Emax was determined as 79% and the EC50 amounted to 367 nM. The Ki on human 5-HT2C receptor [2] is 39.5 nM.
The matching figures for `Cc1ccccc1-c1cccc2c1OC(CN)CN2` (racemic) [Example 17, 1-[8-(2-Methylphenyl)-3,4-dihydro-2H-1,4-benzoxazin-2-yl]methanamine]: 72%, 101 nM and 31 nM.
Consider `NC[C@@H]1CNc2cccc(-c3ccccc3Cl)c2O1` [Example 40, 1-[(2R)-8-(2-chlorophenyl)-3,4-dihydro-2H-1,4-benzoxazin-2-yl]methanamine], for which, at human 5-HT2C receptor [1], the Emax is 45% and the EC50 is 44.3 nM. Also, the Ki on human 5-HT2C receptor [2] was found to be 60.5 nM.
The matching figures for `NCC1CNc2cc(F)cc(-c3c(Cl)cccc3Cl)c2O1` (racemic) [Example 10, 1-[8-(2,6-Dichlorophenyl)-6-fluoro-3,4-dihydro-2H-1,4-benzoxazin-2-yl]methanamine]: 70%, 5 nM and 0.9 nM.

For the origin of these results see patent US20100035871A1, “BENZOXAZINE DERIVATIVES AND USES THEREOF” (priority 2006, published 2010).
